Laboratory results: patent EP0366451A2, “The use of oxidized polyamines, especially NN'-Bis-(3-propionaldehyde)-1-4-diaminobutane (sperminedialdehyde) as immunosuppressive agents” (ORTHO PHARMACEUTICAL CORPORATION, priority 1988, dated 1990)

Assays:
splenic T cell = assay: Concanavalin A-stimulated splenic T cell proliferation ([3H]-thymidine incorporation); type: cell-based, Mouse
Experimental: Splenic cells were treated with various concentrations of SDA or an analogue for 30 min. at 37°C. Cells were washed and cultured in the presence of Concanavalin A for 3 days. [³H] Thymidine 0.1µCi/well was added and cells were harvested after 18-24 hrs.
Mouse spleen cells were cultured for 3 days in flat bottom microtiter relates at 10⁵ cells per well in the presence of […] of Con A. 3H-thymidine (0.1 microcurie/well) was added for the last 4-6 hours of the culture period. Cells were harvested as described above.
For [³H]-thymidine incorporation, drug or vehicle treated bone marrow or spleen cells were plated in RPMI-1640, containing 10% fetal bovine serum, 10 µM β-mercaptoethanol, 25 mM HEPES and 2 mM glutamine. Con-A (4 µg/ml and […]) was used as mitogens for bone marrow and spleen cells. Three days later, [³H]-thymidine (0.2 µCi/well) was added and cells were harvested after 12-18 hrs. L1210/CPA and L1210/0 cells (0.1 - 1 x 10⁵ cells/well were plated in RPMI-1640 containing 10% horse serum. [³H]-thymidine was added after 24 hrs and cells were filtered on GF/B filter paper for scintillation counting.

ALDH = ALDH assay in the mitochondrial fraction of L1210/CPA or mouse liver; type: biochemical; conditions: SDA up to 2.5 mM
Experimental: (§1) Cultured murine leukemic cells and livers (excised from mice immediately after cervical dislocation) were homogenized in 3 volumes of ice-cold 1.15% KCl and 1 mM EDTA. The homogenate was centrifuged at 100,000 g for 45 min and the resulting supernatant was used to measure cytosolic ALDH activity. For particulate ALDH assay, the pellet (and homogenate for total ALDH) was resuspended in homogenizing buffer and treated with 0.25% Triton X-100 for 30 min at 4°C. The solubilized preparations were centrifuged at 48,000 g for 30 min and the supernatants were drawn off for ALDH determinations.
(§2) ALDH activity was measured by monitoring the reduction of NAD or NADp for 5-6 min at […] at 37°C in DU70 spectrophotometer (Beckman). The assay mixture contained 50 mM potassium phosphate buffer, pH 7.4, 2.0 mM NAD (or NADP) and 1.0 mM EDTA. The reaction was started by adding the substrate (SDA or other aldehyde) to the prewarmed (5 min at 37°C) assay mixture containing enzyme preparation. Pyrazole (0.1 mM) was added particularly for liver enzyme, to inhibit alcohol dehydrogenase. The apparent Km and maximum velocity (Vmax) values were calculated using a Lineweaver-Burk plot based on the estimation of the slope by regression analysis. Enzyme activity was expressed as mU (nmoles/min) per mg of protein. Protein contents were determined by the Bradford method, using bovine serum albumin as the standard.

[1] = test system: Cytosolic ALDH in mouse liver; assay: NAD-linked cytosolic ALDH assay, mouse liver; type: biochemical
Experimental: as §1, §2

Swiss Webster mice = assay: Acute toxicity, intraperitoneal; type: in vivo
Experimental: Two pairs of Swiss Webster mice were injected intraperitoneally at 200 mg and 400 mg/kg respectively and observed for toxic effects. Control groups were injected with control preparation. Two weeks after dosing, animals were necropsied and organs were examined for abnormalities.
Two pairs of Swiss Webster mice were injected intraperitoneally at 200 mg and 400 mg/kg for toxic effects.

Human T lymphocytes = assay: PHA driven human T cell proliferation after 1 hour incubation; type: cell-based; conditions: 0.62 x 10⁻² mM, 1 hour at 37°C, washed; Figure 1
Experimental: Human T & B lymphocytes were incubated separately with different concentrations of spermine dialdehyde in vitro for 1 hour. Cells were washed extensively and set up in a PHA (for T cell) or PWM (B cell) proliferation assay. A graph is depicted wherein percentage of response is plotted as a function of concentration of spermine dialdehyde.
Peripheral blood lymphocytes (PBL) were obtained from the blood of normal donors by using standard Ficoll-Hypaque gradient techniques. The T and non-T cells were separated by standard sheep red blood cell (SRBC) rosetting technique. Briefly, 5 x 10⁶/ml PBL were incubated with 1% neuraminidase-treated SRBC, and rosetted cells were separated from non-rosetted cells in a Ficoll-Hypaque gradient. The rosetted cells were designated as T cells. Purified B lymphocytes were obtained from non-rosetted cells by removal of residual T cells using the Pan T monoclonal antibody OKT 11 and complement.
T cell proliferation: 7 x 10⁴ - 10⁵ human T lymphocytes were cultured in flat bottom microtiter plates (Flow) in the presence of 0.1% PHA-P or 1/64 PWM for 4 days. 3H-thymidine (0.1 MCi/well) was added for the last 6 hours of the culture period. […] Cell associated radioactivity was determined by scintillation counting in an automated counter. All of the results were expressed as % response calculated according to the formula: [formula] […]

O=CCCNCCCCNCCC=O [SDA, NN′-Bis-(3-propionaldehyde)-1-4-diaminobutane]
susceptibility of spleen cells to suppression compared with bone marrow cells (splenic T cell; 1 hour incubation, Figure 2): much more susceptible to suppression | effect of addition of DEAB on the potency of SDA (splenic T cell; DEAB (20 µM)): no significant effect | IC50 (splenic T cell; Mus musculus, T-cell, cells treated 30 min at 37°C, washed, cultured with Concanavalin A for 3 days, Figure 8, read-out: IC₅₀): 700 nM | IC100 (splenic T cell; Mus musculus, T-cell, read-out: SDA treatment that abolished Con A-induced murine spleen cell proliferation): 8 to 12 µM | ALDH activity in the mitochondrial fraction (ALDH): could not be measured | specific activity of ALDH, liver compared to L1210 cells ([1]; SDA as substrate, per mg protein): 1.5 times | Km ([1]; as substrate, mouse liver cytosol, NAD, ± SEM, 3-4 experiments): 48.5 µM | Specific (activity of ALDH) ([1]; as substrate, mouse liver cytosol, propionaldehyde 1.0 mM): 10.5 ± 3.2 mU/mg Protein | acute signs (squinting and writhing) (Swiss Webster mice; 200 mg and 400 mg/kg intraperitoneally): acutely irritating | toxic effects (Swiss Webster mice; 200 mg/kg intraperitoneally): no other toxic effect | toxic effects (Swiss Webster mice; 400 mg/kg intraperitoneally): abdominal or whole body edema for five days | necropsy findings (Swiss Webster mice; 400 mg/kg, 14 days after injection): a mildly distended abdomen and scab formation at the injection site | lethal dose (not lethal up to) (Swiss Webster mice; mouse, in vivo, ip): > 400 mg/kg | inhibited T cell proliferation (Human T lymphocytes): 85%
